Measured values published in patent US5216015A, “Compounds having hypocholesterolemic properties” (priority 1991, dated 1993).
Like-named read-outs stand apart in the source and are kept apart here. Each block holds one molecule with its values, some of them ahead of it.

What was measured:
HMG-CoA reductase [1] = experiment: HMGR Screen: inhibition of HMG-CoA reductase solubilized from rat liver microsomes; format: biochemical
Description: (§1) The effectiveness of the compounds of this invention as hypocholesterolemic agents may be determined by the following pharmacologic tests which evaluate the HMG-CoA reductase inhibitory activity of said compounds. The HMGR Screen and Ex Vivo Fasted procedures are standard test procedures; the HMG-CoA reductase inhibitory results generally correlate with the HMG-CoA reductase inhibitory activity found in human patients.
Male rats were acclimated to an alternate 12 hours light-dark cycle for a period of 2-3 weeks. The animals, weighing 180-230 g, were fed ad libitum a rat chow containing 2% cholestyramine for 5 days prior to sacrifice at the mid-dark period. Liver microsomes were prepared and HMG-CoA reductase enzyme was solubilized from the microsomes by freeze-thaw manipulation in high ionic strength buffer. The enzyme preparation was stored at -80° C. in 300 μl portion samples. Prior to use, the enzyme was activated by warming at 37° C. for 30 minutes. A reaction mixture was prepared which consisted of, in a volume of 240 μl: 0.14M potassium phosphate buffer (pH 7.0); 0.18M KCl; 3.5 mM EDTA; 10 mM dithiothreitol; 0.1 mg/ml BSA; 30,000 cpm of [^14 C] HMG-CoA; 20 μM HMG-CoA, and 200 μg of activated enzyme with and without compounds of the present invention (in 10 μl DMSO). After 5 minutes incubation at 37° C. the reaction was initiated with 0.2 mM NADPH. The final assay volume was 300 μl. The reaction was then terminated with 100 μl of 1N HCl. After an additional incubation for 15 minutes at 37° C. to allow for complete lactonization of the product, the mixture was diluted with 3 ml distilled water. The diluted mixture was then poured over a 0.7×1.4 cm column containing 100-200 mesh Bio-Rex ion-exchange resin (chloride form of Bio-Rad) which was equilibrated with distilled water. With this resin the unreacted [^14 C] HMG-CoA was adsorbed and the product [^14 C] mevalonolactone was eluted (80% recovery) directly into scintillation vials. After the addition of 10 ml of Aquasol, radioactivities of the samples were measured in a scintillation counter. Results are reported as % inhibition of the enzyme in the presence of a given concentration of a compound of the present invention as compared with the activity of the enzyme in the absence of said compound, i.e., in the absence of inhibitor.

sterol synthesis = settings: et al., cited from earlier work
HMG-CoA reductase [2] = settings: Brown, et al., J. Biol. Chem. 249 (22), 7306 (1974); cited from earlier work
cholesterol synthesis = experiment: Ex-Vivo Fasted: inhibition of cholesterol synthesis in liver slices after oral dosing of fasted rats; settings: Rattus norvegicus, 1 h, p.o. (Na+ salt), livers removed after one hour
Text: as §1
Rats of 170-210 g were maintained on a low cholesterol diet for one week prior to use. Compounds of the present invention (identified in the table below) were given orally in 0.5% methocel to fasted (fasted for 16 hours) rats. After one hour the rats were decapitated and their livers removed and transferred to chilled oxygenated Kreb's-Ringer-bicarbonate buffer (pH 7.4). The livers were then chopped into 0.5 mm slices using a McIlwain tissue chopper, and were suspended in the same buffer. Aliquots of the suspension containing 100 mg tissue were pipetted to culture tubes which contained [^14 C] sodium octanoate (2 μCi, 3 mM). The tubes were gassed with 95% O2 /CO2, capped and incubated at 37° C. in a shaking water bath at 150 oscillation/min. for two hours. The final assay volume was 1.0 ml. […] After visualization with iodine the cholesterol spots were cut and counted with liquid scintillation fluid. […]

[3] = Schroepfer, et al., Proc. Natl. Acad. Sci., USA 81, 6861-6865 (1984); cited from earlier work
[4] = Schroepfer, J. Biol. Chem. 252 (24), 8975 (1977)
[5] = Kandutsch, J. Biol. Chem. 248 (24), 8408 (1974)

- HMGR Screen % Inhibition (HMG-CoA reductase [1]; Lactone Form, at 3 μM): 19%
- HMGR Screen % Inhibition (HMG-CoA reductase [1]; Ring-opened/Sodium Salt, at 119 nM): 50%
Compound: CCC(C)(C)C(=O)O[C@H]1C[C@H]2C(=C3CC[C@H]([C@H](C)CC4CC(O)CC(=O)O4)[C@]31C)CC[C@@H]1C[C@H](O)CC[C@@]12C (stereo partly drawn) [Example 4, 12α-(2,2-dimethyl)butyryloxy-3α-hydroxy-17β-[3-(4(R)-hydroxy-3,4,5,6-tetrahydro-2H-pyran-2-on-6(R)-yl)-2(R)-2-propyl]-5β-androst-8(14)ene and 12α-(2,2-dimethyl)butyryloxy-3α-hydroxy-17β-[3-(4(S)-hydroxy-3,4,5,6-tetrahydro-2H-pyran-2-on-6(S)-yl)-2(R)-2-propyl]-5β-androst-8(14)-ene]

Compound: CC(C)CCC[C@@H](C)[C@H]1CC(O)C2=C3C(O)C[C@H]4C[C@@H](O)CC[C@]4(C)[C@H]3CC[C@@]21C (stereo partly drawn) [5α-cholest-8(14)-en-3β,7.xi.,15.xi.-triol]
- inhibition of sterol synthesis (sterol synthesis; [4]): potent inhibitors of sterol synthesis

Compound: CCC(C)(C)C(=O)O[C@H]1C[C@H]2[C@@H](CC[C@@H]3C[C@H](O)CC[C@@]32C)[C@@H]2CC[C@H]([C@H](C)CC3CC(O)CC(=O)O3)[C@@]12C (stereo partly drawn) [Example 2, 12α-(2,2-dimethyl)butyryloxy-3α-hydroxy-17β-[3-(4(R)-hydroxy-3,4,5,6-tetrahydro-2H-pyran-2-on-6(R)-yl)-2(R)-2-propyl]-5β-androstane and 12α-(2,2-dimethyl)butyryloxy-3α-hydroxy-17β-[3-(4(S)-hydroxy-3,4,5,6-tetrahydro-2H-pyran-2-on-6(S)-yl)-2(R)-2-propyl]-5β-androstane]
- HMGR Screen % Inhibition (HMG-CoA reductase [1]; Lactone Form, at 30 μM): 33%
- HMGR Screen % Inhibition (HMG-CoA reductase [1]; Ring-opened/Sodium Salt, at 352 nM): 50%

Compound: CC(C)CCC[C@@H](C)[C@H]1C[C@H](O)[C@@H]2C3=CC[C@H]4C[C@@H](O)CC[C@]4(C)[C@H]3CC[C@]12C [5α,14β-cholest-7-en-3β,15α-diol]
- inhibition of sterol synthesis (sterol synthesis; [4]): potent inhibitors of sterol synthesis

Compound: CC(C)CCC[C@@H](C)[C@H]1C[C@@H](O)C2=C3CC[C@H]4C[C@@H](O)CC[C@]4(C)[C@H]3CC[C@@]21C [5α-cholest-8(14)-en-3β,15β-diol]
- inhibition of sterol synthesis (sterol synthesis; [4]): potent inhibitors of sterol synthesis

Compound: CC(C)CCC[C@@H](C)[C@H]1CC[C@H]2[C@@H]3C(=O)C=C4C[C@@H](O)CC[C@]4(C)[C@H]3CC[C@]12C [7-ketocholesterol]
- suppression of HMG-CoA reductase activity (HMG-CoA reductase [2]): suppress HMG-CoA reductase activity
- inhibition of sterol synthesis (sterol synthesis; [5]): inhibit sterol synthesis

Compound: CC(C)CCC[C@@H](C)[C@H]1C[C@H](O)C2=C3CC[C@H]4C[C@@H](O)CC[C@]4(C)[C@H]3CC[C@@]21C [5α-cholest-8(14)-en-3β,15α-diol]
- inhibition of sterol synthesis (sterol synthesis; [4]): potent inhibitors of sterol synthesis

Compound: CC(C)CCC[C@@H](C)[C@H]1C[C@@H](O)[C@@H]2C3=CC[C@H]4C[C@@H](O)CC[C@]4(C)[C@H]3CC[C@]12C [5α,14β-cholest-7-en-3β,15β-diol]
- inhibition of sterol synthesis (sterol synthesis; [4]): potent inhibitors of sterol synthesis

- HMGR Screen % Inhibition (HMG-CoA reductase [1]; Lactone Form, at 5.9 μM): 50%
- HMGR Screen % Inhibition (HMG-CoA reductase [1]; Ring-opened/Sodium Salt, at 228 nM): 50%
Compound: CCC(C)(C)C(=O)O[C@H]1C[C@H]2[C@@H](CC[C@@H]3C[C@H](O)CC[C@@]32C)[C@@H]2CCC=C(/C=C/C3CC(O)CC(=O)O3)[C@@]12C (stereo partly drawn) [Example 1, 12α-(2,2-dimethyl)butyryloxy-3α-hydroxy-17a-[E-2-(4(R)-hydroxy-3,4,5,6-tetrahydro-2H-pyran-2-on-6(S)-yl)ethenyl]-D-homo-5β-androst-17-ene and 12α-(2,2-dimethyl)butyryloxy-3α-hydroxy-17a-[E-2-(4(S)-hydroxy-3,4,5,6-tetrahydro-2H-pyran-2-on-6(R)-yl)ethenyl]-D-homo-5β-androst-17-ene]

Compound: CC(C)CCC[C@@H](C)[C@H]1CC[C@H]2[C@@H]3[C@@H](O)C=C4C[C@@H](O)CC[C@]4(C)[C@H]3CC[C@]12C [7β-hydroxycholesterol]
- inhibition of sterol synthesis (sterol synthesis; [5]): inhibit sterol synthesis

- HMGR Screen % Inhibition (HMG-CoA reductase [1]; Lactone Form, at 1.6 μM): 50%
- HMGR Screen % Inhibition (HMG-CoA reductase [1]; Ring-opened/Sodium Salt, at 16.9 nM): 50%
Compound: CCC(C)(C)C(=O)O[C@H]1C[C@H]2C(=C3CC[C@H](CC[C@@H]4C[C@@H](O)CC(=O)O4)[C@]31C)CC[C@@H]1C[C@H](O)CC[C@@]12C [Example 5, 12α-(2,2-dimethyl)butyryloxy-3α-hydroxy-17β-[2-(4(R)-hydroxy-3,4,5,6-tetrahydro-2H-pyran-2-on-6(R)-yl)-ethyl]-5β-androst-8(14)-ene]
- inhibition at 3 mg/kg (cholesterol synthesis): 47%

Compound: CC(C)CCC[C@@H](C)[C@H]1C[C@@H](O)[C@@]2(C)C3=CC[C@H]4C[C@@H](O)CC[C@]4(C)[C@H]3CC[C@]12C [14α-methyl-5α-cholest-7-en-3β,15β-diol]
- inhibition of sterol synthesis (sterol synthesis; [4]): potent inhibitors of sterol synthesis

Compound: CO[C@H]1CC[C@@]2(C)[C@@H](CC=C3[C@@H]2CC[C@]2(C)[C@@H]([C@H](C)CCCC(C)C)C[C@@H](O)[C@@]32C)C1 [3β-methoxy-14α-methyl-5α-cholest-7-en-15β-ol]
- inhibition of sterol synthesis (sterol synthesis; [4]): potent inhibitors of sterol synthesis

Compound: CC(C)CCC[C@@H](C)[C@H]1C[C@H](O)[C@@]2(C)C3=CC[C@H]4C[C@@H](O)CC[C@]4(C)[C@H]3CC[C@]12C [14α-methyl-5α-cholest-7-en-3β,15α-diol]
- inhibition of sterol synthesis (sterol synthesis; [4]): potent inhibitors of sterol synthesis

Compound: CC(C)CCC[C@@H](C)[C@H]1CC[C@H]2[C@@H]3[C@H](O)C=C4C[C@@H](O)CC[C@]4(C)[C@H]3CC[C@]12C [7α-hydroxycholesterol]
- inhibition of sterol synthesis (sterol synthesis; [5]): inhibit sterol synthesis

Compound: CO[C@H]1CC[C@@]2(C)[C@@H](CC=C3[C@@H]2CC[C@]2(C)[C@@H]([C@H](C)CCCC(C)C)C[C@H](O)[C@@]32C)C1 [3β-methoxy-14α-methyl-5α-cholest-7-en-15α-ol]
- inhibition of sterol synthesis (sterol synthesis; [4]): potent inhibitors of sterol synthesis

Compound: CC(C)CCC[C@@H](C)[C@H]1CC(=O)C2=C3CC[C@H]4C[C@@H](O)CC[C@]4(C)[C@H]3CC[C@@]21C [5α-cholest-8(14)-en-3β-ol-15-one]
- hypocholesterolemic activity [3]: significant hypocholesterolemic acitivity
- inhibition of sterol synthesis (sterol synthesis; [4]): potent inhibitors of sterol synthesis

Compound: CCC(C)(C)C(=O)O[C@H]1C[C@H]2[C@@H]([C@H](OC(C)=O)C[C@@H]3C[C@H](O)CC[C@@]32C)[C@@H]2CC[C@H]([C@H](C)CC3CC(O)CC(=O)O3)[C@@]12C (stereo partly drawn) [Example 3, 7α-acetoxy-12α-(2,2-dimethyl)butyryloxy-3α-hydroxy-17β-[3-(4(R)-hydroxy-3,4,5,6-tetrahydro-2H-pyran-2-on-6(R)-yl)-2(R)-2-propyl]-5β-androstane and 7α-acetoxy-12α-(2,2-dimethyl)butyryloxy-3α-hydroxy-17β-[3-(4(S)-hydroxy-3,4,5,6-tetrahydro-2H-pyran-2-on-6(S)-yl)-2(R)-2-propyl]-5β-androstane]
- HMGR Screen % Inhibition (HMG-CoA reductase [1]; Lactone Form, at 30 μM): 23%
- HMGR Screen % Inhibition (HMG-CoA reductase [1]; Ring-opened/Sodium Salt, at 300 nM): 21%

Compound: CC(C)CCC[C@@H](C)[C@H]1CC(=O)[C@@]2(C)C3=CC[C@H]4C[C@@H](O)CC[C@]4(C)[C@H]3CC[C@]12C [14α-methyl-5α-cholest-7-en-3β-ol-15-one]
- inhibition of sterol synthesis (sterol synthesis; [4]): potent inhibitors of sterol synthesis
